Results: patent publication US5380825A (Sigma Chemical Company, priority 1991, dated 1995)

Columns and labels:
[1] = test system: antibodies from Rabbit No. 1 produced in response to immunization with AZT-3-V:BSA; assay: Fluorescence polarization immunoassay (FPIA) for AZT, standard curve; format: binding; conditions: tracer AZT-3-B:FAM Isomer I, zero standard 166
Description: (§1) The immunogen (1 mg in 1 ml) was emulsified with an equal volume of Freund's Complete Adjuvant and injected intradermally into each of two female albino rabbits. The process was repeated in two weeks. Two weeks later, monthly subcutaneous booster injections were begun with 0.5 mg in 0.5 ml of the immunogen and 0.5 ml of Freund's Incomplete Adjuvant per animal. The rabbits were bled biweekly by a marginal ear vein technique beginning six weeks after the primary immunization. The blood collected was refrigerated, allowing clots to form, and the supernatant (antiserum) retained. The antiserum from each rabbit was collected and stored, either at -20° C. without preservative, or at 4° C. after addition of sodium azide to a final concentration of 0.1%. The same schedule was followed for each immunogen. Rabbits immunized produced antibodies to AZT.
Fluorescence Polarization Immunoassay for AZT
The following procedure illustrates the use of various materials of the invention in a preferred FPIA method.
(§2) An equal volume of precipitation reagent was added per microcentrifuge tube. The tubes were centrifuged at greater than 9,000×g for 1 minute.
(§3) (2) A 17.5 ul sample of each serum extract was brought to approximately pH 7-8 by the addition of buffer.
(§4) (4) After an appropriate incubation time, the polarization of each reaction mixture was determined using a polarization spectrofluorimeter.

[2] = test system: antibodies from Rabbit No. 2 produced in response to immunization with AZT-3-V:BSA; assay: AZT microtiter plate enzyme immunoassay (EIA); format: binding; conditions: tracer AZT-3-V:HRPO; for Net Absorbence (B): zero standard 0.367
Description: as §1
To each well of a 96 well microtiter plate was added 100 ul of diluted rabbit antibodies (Example 45) to AZT-3-V:BSA prepared via active ester (Example 4) previously fractionated with ammonium sulfate. After incubation overnight, the plate was washed and 300 ul of diluted normal rabbit serum was added to each well to block any unbound sites on the plastic surface of the microtiter plate. The plate was again washed and the excess moisture removed. […] The plate was incubated for 60 minutes at room temperature. The plate was then washed and 300 ul of diluted o-phenylenediaminehydrogen peroxide substrate solution was added to each well. The color was allowed to develop for 90 minutes at room temperature in the dark. Absorbances were then measured spectrophotometrically for each well.

[3] = test system: AZT antibodies; assay: Immunological activity / tracer performance in FPIA for AZT (qualitative); format: binding; conditions: qualitative
Description: as §2, §3, §4

[4] = at high dosage levels; cited from earlier work

For `Cc1cn([C@H]2C[C@H](N=[N+]=[N-])[C@@H](CO)O2)c(=O)[nH]c1=O` (single isomer, unassigned) [AZT, 3'-azido-3'-deoxythymidine], the “Polarization Units (P × 1000)” value ([1]; AZT 0.2 uM) was 155 P × 1000, the “Polarization Units (P × 1000)” value ([1]; AZT 0.6 uM) was 141 P × 1000 and the “Polarization Units (P × 1000)” value ([1]; AZT 1.7 uM) was 118 P × 1000. For the same molecule, the “Polarization Units (P × 1000)” value ([1]; AZT 5.0 uM) was 87 P × 1000, the “Polarization Units (P × 1000)” value ([1]; AZT 14.7 uM) was 61 P × 1000 and the “% B/Bo” value ([2]; AZT 0.1 ng/ml) was 88%. The “Net Absorbence (B)” value ([2]; AZT 0.1 ng/ml) was 0.323, the “% B/Bo” value ([2]; AZT 0.4 ng/ml) was 74% and the “Net Absorbence (B)” value ([2]; AZT 0.4 ng/ml) was 0.273. The “% B/Bo” value ([2]; AZT 1.6 ng/ml) was 56%, the “Net Absorbence (B)” value ([2]; AZT 1.6 ng/ml) was 0.205 and the “% B/Bo” value ([2]; AZT 6.3 ng/ml) was 41%. The “Net Absorbence (B)” value ([2]; AZT 6.3 ng/ml) was 0.149, the “% B/Bo” value ([2]; AZT 25.3 ng/ml) was 23% and the “Net Absorbence (B)” value ([2]; AZT 25.3 ng/ml) was 0.085. The “% B/Bo” value ([2]; AZT 101.1 ng/ml) was 12%, the “Net Absorbence (B)” value ([2]; AZT 101.1 ng/ml) was 0.044 and the “immunological activity in FPIA for AZT” value [3] was “immunologically active”. The side effects [4] was “serious side effects at high dosage levels”.
